In US20040110770A1, “Oxindoles which are inhibitors of CDK-1 and their application in therapeutics” (AVENTIS PHARMA SA, priority 2001, published 2004):
Read-outs that look alike come from different tables or passages of the source.

What was measured:
HCT-8 cells = settings: HCT-8, 48 hours
Description: The percentage of mitotic cells and of cells having apoptotic nuclear bodies is determined by examination and counting of a sample of at least 300 cells distributed over several points of the slide using a fluorescent microscope.

HT-29 = assay: cells; settings: Homo sapiens, HT-29, 288 h, read-out: IC50 inhibition of clonogenicity
Description: (§1) The Calc18 human tumour line is a gift from Professor G. Riou (Institut Gustave Roussy, Villejuif, France).
(§2) The cells in exponential growth phase are trypsinized, washed in PBS 1× and diluted to a final concentration of 5000 cells/ml in complete medium. The test products (in a volume of 50 μl) are added to 2.5 ml of suspension. […] The mixture is then immediately poured into Petri dishes and left at +4° C. for 5 minutes to solidify the agar.
(§3) The results are expressed as percentage of inhibition of the clonogenicity with respect to controls. The IC50 is determined graphically from the mean results determined for each concentration of compound.

PC-3 = assay: cells; settings: Homo sapiens, PC-3, 288 h, read-out: IC50 inhibition of clonogenicity
Description: as §1, §2, §3

Calc18 = assay: cells; settings: Homo sapiens, 288 h, read-out: IC50 inhibition of clonogenicity
Description: as §1, §2, §3

Lovo = assay: cells; settings: Homo sapiens, 288 h, read-out: IC50 inhibition of clonogenicity
Description: as §1, §2, §3

C6 = assay: cells; settings: Rattus norvegicus, C6, 288 h, read-out: IC50 inhibition of clonogenicity
Description: as §1, §2, §3

PC-14 = assay: cells; settings: Homo sapiens, PC-14, 288 h, read-out: IC50 inhibition of clonogenicity
Description: as §1, §2, §3

HLF = assay: cells; settings: Homo sapiens, 288 h, read-out: IC50 inhibition of clonogenicity
Description: as §1, §2, §3

HLE = assay: cells; settings: Homo sapiens, 288 h, read-out: IC50 inhibition of clonogenicity
Description: as §1, §2, §3

HCT-8 = assay: cells; settings: Homo sapiens, HCT-8, 288 h, read-out: IC50 inhibition of clonogenicity
Description: as §1, §2, §3

HCT-116 = assay: cells; settings: Homo sapiens, HCT-116, 288 h, read-out: IC50 inhibition of clonogenicity
Description: as §1, §2, §3

HCT-116 cells [1] = assay: cells; settings: Homo sapiens, HCT-116, 96 h, read-out: HCT-116 IC50 (inhibition of proliferation)
Description: The HCT-116 cells are cultured as a layer in a culture flask in Dulbecco's medium comprising L-glutamine 2 mM, penicillin 200 U/ml, streptomycin 2 μg/ml, with the addition of 10% of heat-inactivated foetal calf serum.
The incorporation of the dye in the cell, which reflects cell growth, is evaluated by spectrophotometry at a wavelength of 540 nm for each sample using a Dynatech MR5000 reading device.
For each compound concentration tested, the results are expressed as percentage of inhibition of cell growth and are calculated from the untreated control and from the cell-free (blank) culture medium according to the following formula:
(Value compound−value blank/value cell control−value blank)×100.

[2] = test system: p34cdc2/cyclin B (CDK1/cyclin B); assay: Inhibition of the p34cdc2/cyclin B activity (32P transfer from ATP to histone H1); format: biochemical, starfish or human recombinant
Description: The protein Histone H1 (type III-S) is obtained from Sigma. […] The reaction medium is prepared according to the following composition: 10 μl of enzymatic preparation are added to 5 μl of Histone H1 (5 mg/ml in buffer C) and to 7 μl of buffer C and mixed. 17.5 μl of the mixture are distributed in the tubes immediately before the test. 3 μl of inhibiting agent to be tested are added to each tube. The reaction is begun by the addition of 5 μl of the ATP solution, followed by incubating for 15 minutes at 30° C. The reaction is halted by the addition of 0.5 volumes of Laemli 3× buffer. […] The analysis and the quantification of the phosphorylation of the Histone H1 are carried out using an Instant-Imager device (Packard).

HCT-116 cells [3] = settings: HCT-116, 1 μg/ml
Description: The HCT-116 cells are seeded in Nunc 6-well dishes.
The cells are treated with 30 μM BrDU for 30 minutes and then trypsinized. After fixing the cells in 1% paraformaldehyde for 16 hours, the latter are digested in pepsin/hydrochloric acid and then rinsed in PBS 1×. Immunolabelling is carried out with an anti-BrDU primary antibody (Becton Dickinson) and a GAM-FITC secondary antibody (Coulter). The DNA is subsequently labelled with propidium iodide in PBS comprising 1 mg/ml of boiled RNAse. This method makes it possible to count the cells in the G1, S and G2M phases.

O=C1Nc2ccc(-c3cccnc3)cc2C1=Cc1cnc[nH]1 [Compound 1, 1,3-dihydro-3-(imidazol-4-ylmethylene)-5-(pyrid-3-yl)-2H-indolin-2-one]
Apoptotic cells (%) (HCT-8 cells; 0.1 μg/ml): 8.5% | Apoptotic cells Factor/control (HCT-8 cells; 0.1 μg/ml): 3.5 | Mitotic cells (%) (HCT-8 cells; 0.1 μg/ml): 2.8% | Mitotic cells Factor/control (HCT-8 cells; 0.1 μg/ml): 0.4 | Apoptotic cells (%) (HCT-8 cells; 1 μg/ml): 16% | Apoptotic cells Factor/control (HCT-8 cells; 1 μg/ml): 6.6 | Mitotic cells (%) (HCT-8 cells; 1 μg/ml): 0.7% | Mitotic cells Factor/control (HCT-8 cells; 1 μg/ml): 0.1 | Apoptotic cells (%) (HCT-8 cells; 10 μg/ml): 42.5% | Apoptotic cells Factor/control (HCT-8 cells; 10 μg/ml): 17.7 | Mitotic cells (%) (HCT-8 cells; 10 μg/ml): 0.4% | Mitotic cells Factor/control (HCT-8 cells; 10 μg/ml): 0.06 | IC50 (HT-29): 1420 nM | IC50 (PC-3): 190 nM | IC50 (Calc18): 1060 nM | IC50 (Lovo): 900 nM | IC50 (C6): 10800 nM | IC50 (PC-14): 1100 nM | IC50 (HLF): 1100 nM | IC50 (HLE): 1200 nM | IC50 (HCT-8): 1040 nM | IC50 (HCT-116): 280 nM | IC50 (HCT-116 cells [1]): 280 nM | CDK1 % inhibition at 10 μM [2]: 99% | Cells in G1 phase (%) (HCT-116 cells [3]; contact time 4 h): 62.2% | Cells in G2-M phase (%) (HCT-116 cells [3]; contact time 4 h): 16.4% | Cells in S phase (%) (HCT-116 cells [3]; contact time 4 h): 20.1% | Cells in G1 phase (%) (HCT-116 cells [3]; contact time 24 h): 26.8% | Cells in G2-M phase (%) (HCT-116 cells [3]; contact time 24 h): 31.4% | Cells in S phase (%) (HCT-116 cells [3]; contact time 24 h): 39.5% | Cells in G1 phase (%) (HCT-116 cells [3]; contact time 48 h): 7.9% | Cells in G2-M phase (%) (HCT-116 cells [3]; contact time 48 h): 58.9% | Cells in S phase (%) (HCT-116 cells [3]; contact time 48 h): 30.9% | Cells in G1 phase (%) (HCT-116 cells [3]; contact time 72 h): 7.8% | Cells in S phase (%) (HCT-116 cells [3]; contact time 72 h): 5.1%

CNC(=O)c1ccc2c(c1)C(=Cc1c[nH]cn1)C(=O)N2 [Compound 3, 1,3-dihydro-3-(imidazol-4-ylmethylene)-5-(N-methylcarboxamido)-2H-indolin-2-one]
CDK1 % inhibition at 10 μM ([2]; 10 μM): 100%

CC(=O)Nc1ccc2c(c1)C(=Cc1c[nH]cn1)C(=O)N2 [Compound 4, 1,3-dihydro-3-(imidazol-4-ylmethylene)-5-(acetylamino)-2H-indolin-2-one]
CDK1 % inhibition at 10 μM ([2]; 10 μM): 100%

O=C1Nc2ccc(Br)cc2C1=Cc1cnc[nH]1 [Compound 5-3]
CDK1 % inhibition at 10 μM ([2]; 10 μM): 100%

O=C1Nc2ccc([N+](=O)[O-])cc2C1=Cc1ccc[nH]1 [Compound 5-6]
CDK1 % inhibition at 10 μM ([2]; 10 μM): 91%

O=C1Nc2ccc(C(=O)c3cccs3)cc2C1=Cc1cnc[nH]1 [Compound 5-7]
CDK1 % inhibition at 10 μM ([2]; 10 μM): 100%

O=C1Nc2ccc([N+](=O)[O-])cc2C1=Cc1cnc[nH]1 [Compound 5-8]
CDK1 % inhibition at 10 μM ([2]; 10 μM): 81%

Cc1nc[nH]c1C=C1C(=O)Nc2ccc(-c3cccnc3)cc21 [Compound 5-10]
CDK1 % inhibition at 10 μM ([2]; 10 μM): 100%

Cc1nc[nH]c1C=C1C(=O)Nc2ccc(C(=O)O)cc21 [Compound 5-11]
CDK1 % inhibition at 10 μM ([2]; 10 μM): 100%

Cc1nc[nH]c1C=C1C(=O)Nc2ccc(S(N)(=O)=O)cc21 [Compound 5-12]
CDK1 % inhibition at 10 μM ([2]; 10 μM): 100%
